Legend:
[1] = system: HL60-ABCB1 cells; experiment: XTT proliferation / drug combination assay, HL60-ABCB1; conditions: HL60-ABCB1
Description: (§1) The MTT method is not readily adapted for use with suspension cell cultures, therefore the XTT assay was used to assess the proliferation of HL60 cells. Briefly, HL60-par, HL60-ABCB1, HL60-ABCG2, and HL60-ABCC1 cells were seeded at 2 × 10^4 cells/well in 96-well culture plates. Immediately after seeding, dilutions of the tested drugs or drug combinations were added to the cells. The plates were then incubated under standard conditions (37 °C, 5% CO2) for 48 h, after which XTT solution in PBS (1 mg/mL) and phenazine methosulfate (7.50 µg/mL) were added to the cells and the plates were incubated for another 5 h. Finally, the cells’ absorbance was measured at 450 nm using a microplate reader (Infinite M200, Tecan, Salzburg, Austria). This method was used to assess the effect of ABC transporters on sensitivity to ensartinib and in drug combination assays.
(§2) Experiments focusing on the modulation of ABC transporter-mediated resistance were performed as described previously. The parent MDCKII and HL60 cells and their ABCB1-, ABCG2-, and ABCC1-overexpressing counterparts were seeded at the densities specified above onto 96-well culture plates and cultured for 24 h. The medium was subsequently replaced with serial dilutions of ensartinib alone or with various concentrations of a model MDR-susceptible cytostatic agent (daunorubicin or mitoxantrone) with or without 10 µM ensartinib. After 48 h incubation, the cells’ viability was determined as described above. In addition to performing IC50-shift analyses, the viability measurements were converted to FA (fraction of cells affected) values and the effects of drug combinations were quantified using the Chou-Talalay combination index (CI) method as implemented in CompuSyn 3.0.1 (ComboSyn Inc., Paramus, NJ, USA). The effects of concomitantly administered drugs were classified as synergistic (CI < 0.9), additive (0.9 < CI < 1.1), or antagonistic (CI > 1.1) based on the computed CI values.

[2] = as above; conditions: human, HL60-ABCB1 cells
Description: as §1, §2

[3] = molecular target: T1, ABCB1 (Homo sapiens, UniProt P08183); experiment: hoechst 33342 accumulation assay in MDCKII-ABCB1 cells; format: cell-based; conditions: read-out: IC50, inhibition of ABCB1 (hoechst 33342 accumulation)
T1 construct: expressed in transfected cells; host or cells: MDCKII-ABCB1 (from Dr. Alfred Schinkel, The Netherlands Cancer Institute)
Description: Cellular accumulation assay with hoechst 33342 and calcein AM was performed as described previously. Briefly, MDCKII-par, MDCKII-ABCB1, MDCKII-ABCG2, and MDCKII-ABCC1 cells were seeded at densities of 5.0 × 10^4, 5.0 × 10^4, 5.5 × 10^4, and 6.0 × 10^4 cells/well, respectively, on a transparent 96-well plate and grown to full confluence for 24 h under standard conditions. The cells were then washed twice with 1 × PBS, after which was added either a dilution of ensartinib in Opti-MEM (1, 5, 10, 25, or 50 µM) or a specific inhibitor to act as a positive control (1 µM LY335979, 1 µM Ko143, or 25 µM MK-571 for ABCB1, ABCG2, or ABCC1, respectively). Cells were pre-incubated for 10 min, then 8 µM hoechst 33342 (a model substrate for ABCB1 and ABCG2) or 2 µM calcein AM (ABCC1 substrate) diluted in Opti-MEM was quickly added to all wells other than those containing blank samples. The intracellular levels of the substrates were then determined at 1 min intervals for 30 min using a microplate reader (Infinite M200 Pro, Tecan, Männedorf, Switzerland). Fluorescence was monitored in bottom mode using excitation/emission wavelengths of 350/465 and 485/535 nm for hoechst 33342 and calcein AM, respectively.

[4] = molecular target: T2, ABCC1 (Homo sapiens, UniProt P33527); experiment: MDCKII monolayer transport assay, MDCKII-ABCC1; format: in vitro ADME; conditions: dog, 1 µM ensartinib, read-out: transport ratio (r), BA/AB
T2 construct: expressed in transfected cells; host or cells: MDCKII-ABCC1 (from Dr. Alfred Schinkel, The Netherlands Cancer Institute)
Description: Transport assays were performed on microporous polycarbonate membrane filters (3 µm pore size, 24 mm diameter, Transwell 3414; Costar, Corning, NY, USA) using MDCKII parental as well as ABCB1-, ABCG2-, and ABCC1-overexpressing MDCKII cells. The cells were seeded at a density of 1.5 × 10^6 cells per insert and cultured to full confluence for 7 days with media exchanges on the second and fourth days. Before the start of the transport experiments, inserts were washed with 1 × PBS on both the apical and basal sides. The cells were then preincubated in Opti-MEM with or without model inhibitors (1 µM LY335979, 1 µM Ko143, or 25 µM MK-571). […] Ensartinib levels in samples were measured by UHPLC-MS/MS (see below). […]
Samples from the monolayer transport assays (10 µL) were mixed with 100 µL of acetonitrile and 100 µL of methanol, vortexed for 15 min, and centrifuged at 14,500 rpm for 3 min. […] The MS source parameters were set to the following: drying gas, 320 °C, flow rate 10 l/min; sheath gas, 400 °C at 12 l/min; nebulizer pressure 25 psi; capillary voltage 4000 V; nozzle voltage 0 V. Transitions of [M+H]^+ ions were detected using a dwell time of 150 ms, a cell acceleration of 4 V, and fragmentor voltages of 137 V for 547→357, 257 and 120 transitions (corresponding to collision energies of 16, 32, and 56 V).

[5] = system: HL60-ABCC1 cells; experiment: XTT proliferation assay, HL60-ABCC1; format: cell-based; conditions: Homo sapiens, 48 h, read-out: IC50, sensitivity to ensartinib

T2 sequence (P33527 whole entry): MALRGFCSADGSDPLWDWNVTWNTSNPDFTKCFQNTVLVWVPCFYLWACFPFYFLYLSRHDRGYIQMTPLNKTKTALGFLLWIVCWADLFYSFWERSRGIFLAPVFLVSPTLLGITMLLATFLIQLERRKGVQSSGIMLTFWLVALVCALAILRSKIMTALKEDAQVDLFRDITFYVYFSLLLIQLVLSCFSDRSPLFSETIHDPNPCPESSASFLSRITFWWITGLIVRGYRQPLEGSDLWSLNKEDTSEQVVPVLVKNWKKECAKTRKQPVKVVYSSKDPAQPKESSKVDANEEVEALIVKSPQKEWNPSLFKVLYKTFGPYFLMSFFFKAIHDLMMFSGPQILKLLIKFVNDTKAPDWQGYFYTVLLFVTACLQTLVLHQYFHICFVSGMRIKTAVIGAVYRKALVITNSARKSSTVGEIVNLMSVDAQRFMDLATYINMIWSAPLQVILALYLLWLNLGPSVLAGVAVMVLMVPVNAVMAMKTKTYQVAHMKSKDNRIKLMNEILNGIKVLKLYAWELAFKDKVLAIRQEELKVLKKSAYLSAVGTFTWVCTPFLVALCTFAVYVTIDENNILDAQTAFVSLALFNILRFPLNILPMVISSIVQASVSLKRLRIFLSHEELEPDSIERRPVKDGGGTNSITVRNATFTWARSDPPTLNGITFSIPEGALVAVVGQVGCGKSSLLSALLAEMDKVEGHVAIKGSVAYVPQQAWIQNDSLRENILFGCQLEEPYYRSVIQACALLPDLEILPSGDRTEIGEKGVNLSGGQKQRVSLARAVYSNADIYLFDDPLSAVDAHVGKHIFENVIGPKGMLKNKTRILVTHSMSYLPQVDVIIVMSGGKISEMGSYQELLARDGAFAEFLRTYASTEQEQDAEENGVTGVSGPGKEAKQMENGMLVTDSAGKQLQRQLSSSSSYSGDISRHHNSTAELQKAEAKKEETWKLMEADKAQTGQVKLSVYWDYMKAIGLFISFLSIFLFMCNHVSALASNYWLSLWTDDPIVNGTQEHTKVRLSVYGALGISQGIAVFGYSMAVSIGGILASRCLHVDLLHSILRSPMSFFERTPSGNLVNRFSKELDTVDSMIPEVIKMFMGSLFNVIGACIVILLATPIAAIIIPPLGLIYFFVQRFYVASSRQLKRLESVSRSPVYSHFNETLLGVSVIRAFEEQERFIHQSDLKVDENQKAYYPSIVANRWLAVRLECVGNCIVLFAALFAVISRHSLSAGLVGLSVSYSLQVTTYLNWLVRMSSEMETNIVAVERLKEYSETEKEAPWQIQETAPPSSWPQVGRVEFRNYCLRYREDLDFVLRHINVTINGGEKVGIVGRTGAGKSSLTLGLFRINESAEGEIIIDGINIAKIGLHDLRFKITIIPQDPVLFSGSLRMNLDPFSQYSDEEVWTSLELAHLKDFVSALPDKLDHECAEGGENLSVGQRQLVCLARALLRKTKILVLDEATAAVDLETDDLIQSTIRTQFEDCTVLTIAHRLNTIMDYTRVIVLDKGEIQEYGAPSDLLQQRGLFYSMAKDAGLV
T1 sequence (P08183 whole entry): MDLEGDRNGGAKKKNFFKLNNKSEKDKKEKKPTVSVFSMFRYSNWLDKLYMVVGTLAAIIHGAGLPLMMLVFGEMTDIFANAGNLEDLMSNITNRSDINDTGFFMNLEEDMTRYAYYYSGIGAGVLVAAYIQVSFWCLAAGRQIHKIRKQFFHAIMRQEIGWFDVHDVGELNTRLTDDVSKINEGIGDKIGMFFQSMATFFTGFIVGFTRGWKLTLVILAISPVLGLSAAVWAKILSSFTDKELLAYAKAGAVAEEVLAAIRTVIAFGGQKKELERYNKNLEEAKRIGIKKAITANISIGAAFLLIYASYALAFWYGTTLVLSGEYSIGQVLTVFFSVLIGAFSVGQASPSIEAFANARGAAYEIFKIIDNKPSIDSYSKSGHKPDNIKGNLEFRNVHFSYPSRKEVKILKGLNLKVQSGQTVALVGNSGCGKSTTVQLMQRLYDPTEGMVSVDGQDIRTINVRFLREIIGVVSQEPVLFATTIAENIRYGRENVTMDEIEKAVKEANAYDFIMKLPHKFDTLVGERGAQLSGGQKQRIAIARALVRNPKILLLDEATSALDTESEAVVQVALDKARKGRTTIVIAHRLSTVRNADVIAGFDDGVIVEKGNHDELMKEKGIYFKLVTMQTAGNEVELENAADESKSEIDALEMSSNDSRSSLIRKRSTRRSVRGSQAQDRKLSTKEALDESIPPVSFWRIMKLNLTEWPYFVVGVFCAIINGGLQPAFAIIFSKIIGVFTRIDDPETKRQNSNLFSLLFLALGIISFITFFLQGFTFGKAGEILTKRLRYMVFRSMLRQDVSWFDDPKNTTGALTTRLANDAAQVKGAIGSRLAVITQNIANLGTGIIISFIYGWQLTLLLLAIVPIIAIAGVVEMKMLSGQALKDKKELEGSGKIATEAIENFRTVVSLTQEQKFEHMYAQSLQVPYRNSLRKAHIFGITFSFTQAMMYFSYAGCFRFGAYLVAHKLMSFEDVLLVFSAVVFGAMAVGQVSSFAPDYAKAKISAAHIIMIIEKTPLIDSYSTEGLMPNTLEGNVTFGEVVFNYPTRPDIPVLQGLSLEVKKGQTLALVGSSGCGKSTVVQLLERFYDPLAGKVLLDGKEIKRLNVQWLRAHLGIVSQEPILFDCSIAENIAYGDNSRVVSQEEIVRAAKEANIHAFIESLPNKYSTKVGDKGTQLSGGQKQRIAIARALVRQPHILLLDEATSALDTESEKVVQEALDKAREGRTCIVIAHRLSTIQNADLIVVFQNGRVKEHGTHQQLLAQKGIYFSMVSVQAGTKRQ

IC50 [3]: 3.69 µM
efflux ratio at 4 h, 1 µM [4]: 1.29
IC50 [5]: 27.4 µM
Compound: C[C@@H]1CN(C(=O)c2ccc(NC(=O)c3cc(O[C@H](C)c4c(Cl)ccc(F)c4Cl)c(N)nn3)cc2)C[C@H](C)N1 [ensartinib, Ensartinib]
combination effect (Chou-Talalay combination index) ([1]; 10 µM ensartinib with daunorubicin): synergistic (synergistic (CI < 0.9))
RR (reversal ratio) ([1]; daunorubicin, IC50 single drug / IC50 combined with 10 µM ensartinib): 22.1
IC50 at 48 h [2]: 29.6 µM

Source: article PMC7226045, “Ensartinib (X-396) Effectively Modulates Pharmacokinetic Resistance Mediated by ABCB1 and ABCG2 Drug Efflux Transporters and CYP3A4 Biotransformation Enzyme” (Cancers, 2020)
